Test results as given in patent US10532977B2, “Small molecule inhibitors of protein tyrosine phosphatases and uses thereof” (Indiana University Research and Technology Corporation, priority 2015, dated 2020).

Test system: mPTPB
Experiment: IFN-γ induced Erk1/2 phosphorylation in mPTPB transfected Raw264.7 cells
Type: cell-based, mouse
Description: Raw264.7 mouse macrophages were cultured in Dulbecco's modified Eagle's medium (DMEM) supplemented with 10% FBS (Invitrogen), penicillin (50 units/mL), and streptomycin (50 μg/mL) under a humidified atmosphere containing 5% CO2 at 37° C. Transfected Raw264.7 cells (Vector, WT-mPTPB) were seeded in a 12-well plate at a density of 4×10^4 cells/well. The following day cells were treated with mPTPB inhibitor 11a for 1 hour, then stimulated with IFN-γ (200 U/ml) for 1 hour. Subsequently, the cells were washed with ice-cold phosphate buffered saline, and lysed with lysis buffer on ice for 30 minutes. Cell lysate was then cleared by centrifuging at 13,000 rpm for 15 minutes. The phosphorylation of ERK1/2 was detected by Western blotting.

O=C(C(c1ccccc1)S(=O)(=O)O)N1CCCC2CCCCC21 (centres unmarked) [Compound L319N53]
Erk1/2 phosphorylation in mPTPB transfected Raw264.7 cells (8 nM, 16 nM, and 32 nM): increased Erk1/2 phosphorylation
Erk1/2 phosphorylation in vector cells (Raw264.7 vector cells): no effect
